Active and inactive are the calls of the source.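 The calls were made as follows: active = EC50 no more than a set limit of log units above the highest dose; inactive = the rest.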 Where only a bound is given, the exact number is not on record here.

In the assay the target is S. pyogenes SKKanGAS, kanamycin survival, BacTiterGlo, 6 h. In words: S. pyogenes SKKanGAS kanamycin growth inhibitors – SKKanGAS strain, luminescence, dose confirmation, streptokinase promoter inhibitor project, dose response (AID 1902).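 Also: lower survival reflects blocked streptokinase promoter driving kanamycin resistance gene.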
By EC50 is commonly meant the concentration needed to bring the measured effect to its halfway point. As for `COc1cccc(/C=C/C(=C2/C(=O)N(c3ccccc3)N=C2C)c2ccc(Br)cc2)c1OC`, the EC50 was > 15 µM (inactive).
With `O=C(NNC(=O)c1cc(-c2ccc(Cl)cc2Cl)nc2ccccc12)Nc1ccccc1`, the concentration giving a half-maximal response (EC50) is 3.04 µM.
The figure for `COc1ccc(Sc2ccc(NC(=O)c3ccccc3Cl)cc2C#N)cc1` is 2.51 µM.
Take `O=C(COc1ccc(F)cc1Cl)Nc1nc(-c2ccccn2)cs1`: the EC50 was 1.12 µM.
Turning to `Cc1nn(-c2ccccc2)c(C)c1/C=N/NC(=O)c1cc(C23CC4CC(CC(C4)C2)C3)[nH]n1`, the EC50 is 6.98 µM.
In the case of `COc1ccc(-c2nnc(NC(=O)c3cc(Cl)ccc3Cl)o2)cc1`, the concentration giving a half-maximal response (EC50) is 0.814 µM.
With `O=C(Nc1cccc(NC(=O)c2cccnc2)c1)c1ccccc1`, the EC50 is > 15 µM (inactive).
To `O=S(=O)(NCc1nnc2c(C(F)(F)F)cc(Cl)cn12)c1ccccc1` belongs > 15 µM (inactive); to `FC(F)(F)c1cc(-c2ccccc2)nc(N2CCCCCC2)n1`, 3.93 µM.
To `CCOc1cc(/C=C(\C#N)c2nc(-c3cccs3)c(NC(C)=O)s2)ccc1O` belongs 0.385 µM.
As for `Cc1ccc(CNC(=O)c2ccc([N+](=O)[O-])o2)cc1`, the EC50 was 4.67 µM.
In the case of `CC(=O)Oc1ccccc1C1=NN(C(=O)/C=C/c2ccccc2)C(c2ccccc2)C1` (stereo unspecified), the EC50 is 5.15 µM.
`CC(C)(O)c1ccccc1CC[C@@H](SCC1(CC(=O)O)CC1)c1cccc(/C=C/c2ccc3ccc(Cl)cc3n2)c1`: the 50% effective concentration (EC50) was 1.44 µM.
Take `O=C1N/C(=N\N=C\c2cccs2)SC1Cc1ccc(Cl)c(Cl)c1` (stereo unspecified): the EC50 is 11.4 µM.
As for `O=C(NC(=S)NNC(=O)c1ccc(Cl)cc1Cl)c1cccnc1`, the concentration for a half-maximal effect (EC50) was 3.07 µM.
On to `CC(C)C[C@H](NC(=O)c1[nH]cnc1C(=O)N[C@@H](C)c1ccccc1)C(=O)OCc1ccccc1`, for which the concentration for a half-maximal effect (EC50) was 1.16 µM.
Take `CCC/C=C(\CCC)C(NS(=O)(=O)c1ccc(C(F)(F)F)cc1)c1ccccc1` (stereo unspecified): the EC50 is 3.48 µM.
The figure for `COc1ccc(-c2cc(C3CCN(Cc4cccc(C(F)(F)F)c4)CC3)[nH]n2)cc1` is 9.26 µM; for `Cc1conc1NC(c1cccs1)c1ccc2cccnc2c1O` (stereo unspecified) it is 1.23 µM.
As for `CCOC(=O)c1sc(N2C(=O)C(O)=C(C(=O)c3ccco3)C2c2cccc(Cl)c2)nc1C` (stereo unspecified), the EC50 was 5.26 µM.
With `N#Cc1ccc(Cl)cc1NC(=O)CSc1nc2nc(-c3cccs3)cc(C(F)(F)F)c2c(=O)[nH]1`, the concentration for a half-maximal effect (EC50) is 4.97 µM.
As to `Cc1ccc(/C=N/NC(=O)C2=NNC(c3ccccc3)(c3ccccc3)C2)c(O)c1`, the EC50 was 4.01 µM.
For `O=C(CCc1ccccc1)NNC(=S)NC(=O)c1ccc(Cl)cc1`, the EC50 was 0.203 µM.
As for `Oc1c(Br)cc(Br)cc1CNc1ccc(F)cc1`, the 50% effective concentration (EC50) was 8.89 µM.
As for `C=CCn1c(O)c(C(CC)=Nc2ccc(N(CC)CC)cc2)c(=O)[nH]c1=O`, the EC50 is 1.66 µM.
The figure for `Cc1ccc(Nc2nc(N)nc(CN3CCN(c4ccccc4)CC3)n2)cc1Cl` is 13.2 µM.
Take `COc1cc(C(=O)NNC(=S)NC(=O)c2ccc(Cl)cc2)cc(OC)c1OC`: the 50% effective concentration (EC50) was 0.499 µM.
Take `CCc1ccc(Nc2n[n+](-c3ccccc3)c(-c3c(Cl)cccc3Cl)s2)cc1`: the EC50 is 6.22 µM.
Take `COCCn1c(-c2cc(OC)c(OC)c(OC)c2)nc2oc3cc(OC)ccc3c(=O)c2c1=O`: the EC50 was > 15 µM (inactive).
On to `CC(Oc1ccccc1)C(=O)NC1C(=O)N2C1SC(C)(C)C2C(=O)O` (stereo unspecified), for which the half-maximal effective concentration (EC50) was 0.114 µM.
Consider `NC(=O)c1cc(C(=O)Cc2ccccc2)c[nH]1`, for which the EC50 was 2.23 µM.
As for `CCCCNc1c(-c2ccc(-c3ccc(C(C)=O)cc3)c(OC)c2)nc2cnccn12`, the EC50 was 5.58 µM.
For `Cc1ccccc1C(=O)Nc1nc(=S)ss1`, the EC50 is 2.46 µM.
Regarding `Oc1c(C(Nc2ccccn2)c2ccccn2)ccc2cccnc12` (stereo unspecified), the EC50 was 10.7 µM.
The figure for `Fc1ccc(CO/N=C/C2=C(Cl)c3ccccc3CC2)cc1` is 3.96 µM; for `CCOc1ccc(-c2nc3n(c(=O)c2C#N)CCCS3)cc1` it is 7.33 µM; for `O=C(NNC1=Nc2cccc3cccc1c23)c1ccc(Br)cc1` it is 0.22 µM.
Regarding `COc1cccc(/C=N/n2c(N)nc3ccccc32)c1OC`, the EC50 was 5.93 µM.
With `Cc1ccc(NC(=O)c2cc(N3C(=O)C=CC3=O)ccc2N2CCOCC2)cc1Cl`, the concentration for a half-maximal effect (EC50) was 11.5 µM.
Regarding `Cc1ccc(S(=O)(=O)NCC(=O)OCC(=O)N2N=C(c3ccc(Cl)cc3)CC2c2ccco2)cc1C` (stereo unspecified), the EC50 was 8.17 µM.
To `CCC(CC)c1nnc(NC(=O)c2ccc3ccccc3n2)s1` belongs 0.72 µM; to `CCOC(=O)C1=C(Cc2ccc(C)cc2)C(=O)c2ccccc2C1=O`, 4.64 µM; to `Cc1cccc2sc(NNC(=O)c3ccc(S(=O)(=O)N4CCCC(C)C4)cc3)nc12` (stereo unspecified), 0.31 µM.
`COc1ccccc1N=Nc1nc(-c2ccccc2)c(-c2ccccc2)[nH]1`: the EC50 is 1.39 µM.
Consider `NC(=O)NC(=O)CSc1nc2cc([N+](=O)[O-])ccc2n1-c1cccc(C(F)(F)F)c1`, for which the concentration for a half-maximal effect (EC50) is 0.256 µM.
The figure for `N=c1ccn2c(n1)O[C@H]1[C@H](O)[C@@H](CO)O[C@H]12` is 4.89 µM; for `COc1ccc(C(=O)NCC(=O)OCCCOC(=O)CNC(=O)c2ccc(OC)c(OC)c2)cc1OC` it is > 15 µM (inactive).
For `Cc1cccc2sc(NC(=O)c3ccc(NS(=O)(=O)c4cccs4)cc3)nc12`, the EC50 is 1.27 µM.
For the compound `COc1ccc(-c2cc(C(=O)NNC(=S)NC(=O)c3c(-c4ccccc4)noc3C)[nH]n2)cc1`, the EC50 is 0.2 µM.
`CCOc1ccc2c(c1)c1nnc(SCC(=O)N3CCC(C)CC3)nc1n2C`: the 50% effective concentration (EC50) is 15.6 µM.
On to `Nc1ccc(N=Nc2ccccc2)c2ccccc12`, for which the EC50 was 6.71 µM.
In the case of `Cc1cc(/C=C2\SC(=S)N(C)C2=O)c(C)n1-c1ccccc1O`, the EC50 is 6.72 µM.
As for `O=C(Nc1cccc(C(F)(F)F)c1)c1cc2c(=O)c3ccccc3oc2nc1C(F)(F)F`, the EC50 is 7.27 µM.
Take `Cc1nc(C)c(C(=O)N/N=C/c2cc(Br)ccc2O)s1`: the half-maximal effective concentration (EC50) is 2 µM.
Consider `O=C(NNC(=S)NC(=O)c1ccccc1)c1cccc([N+](=O)[O-])c1`, for which the EC50 was 5.82 µM.
For the compound `Cc1[nH]n(-c2ccc(Br)cc2)c(=O)c1/C=N/NC(=O)c1ccccc1`, the EC50 is 0.428 µM.
In the case of `FC(F)(F)c1cccc(NC(=S)NNC(=S)Nc2ccc(Cl)cc2)c1`, the EC50 was 4.81 µM.
In the case of `O=C1C=C(Nc2ccccc2)c2ccccc2C1=O`, the EC50 was 2.44 µM.
With `Cc1ccccc1NC1=C/C(=N\S(=O)(=O)c2cccs2)c2ccccc2C1=O`, the half-maximal effective concentration (EC50) was 1.44 µM.
Turning to `O=C(C[n+]1ccc2ccccc2c1)Nc1cc(C(F)(F)F)ccc1Cl`, the EC50 was > 15 µM (inactive).
In the case of `CC[n+]1c(/C=C/N(C)c2ccccc2)n(-c2ccccc2)c2ccc(-c3nc4ccccc4s3)cc21`, the half-maximal effective concentration (EC50) is 3.61 µM.
Consider `Cc1nnc(SCC2=C(C(=O)O)N3C(=O)C(NC(=O)c4cccc(F)c4F)C3SC2)s1` (stereo unspecified), for which the half-maximal effective concentration (EC50) was 0.269 µM.
On to `CCOC(=O)c1[nH]c2ccc(F)cc2c1NC(=O)c1ccccc1C(=O)O`, for which the EC50 is > 15 µM (inactive).
On to `Cc1cccc(NC(=S)Nc2ccc(Cl)c(Cl)c2)c1`, for which the EC50 is 9.6 µM.
For `O=C(CSc1nc(N2CCOCC2)nc(N2CCOCC2)n1)Nc1cccc(C(F)(F)F)c1`, the EC50 was > 15 µM (inactive).
To `CC(C)(C)c1cc(NCc2ccccn2)n2ncc(-c3ccccc3)c2n1` belongs 0.171 µM.

The values are drawn from PubChem BioAssay AID1902 (Broad Institute, 2009).
